From patent US20090291857A1, “METHODS TO IDENTIFY INHIBITORS OF THE UNFOLDED PROTEIN RESPONSE” (THE BOARD OF TRUSTEES OF THE LELAND STANFORD JUNIOR …, priority 2006, published 2009)

What was measured:
[1] = Analysis of blood chemistry and cell composition; format: in vivo, mouse
Procedure: (§1) Complete blood counts (CBC's) and clinical chemistry panels were performed on blood obtained by cardiac puncture after euthanasia with CO2. Gross necropsies were performed, all major viscera were harvested, fixed in 10% buffered neutral formalin, routinely processed for paraffin embedding, and stained with hematoxylin and eosin (H&E). Sections were analyzed by a board-certified veterinary pathologist (DMB).
(§2) The increased sensitivity of irestatin-treated cells to hypoxic stress in vitro indicate that selective inhibition of IRE1α signaling could impact tumor growth. […] In contrast, XBP-1s was not detected in normal pancreas specimens (0/20), and infrequently observed in chronic pancreatitis (1/29) (FIG. 15). To explore the effects to irestatin 9389 in vivo, we first established animal dosing parameters using real-time bioluminescence imaging of SCID mice that had been implanted subcutaneously (s.c.) with tumor cells stably expressing the XBP-luciferase reporter. […] The XBP-luciferase signal returned to basal levels by 24 hours after treatment. […] (FIG. 16).

XBP-1s (5X-UPRE) = assay: 5X-UPRE luciferase reporter assay; format: cell-based, human
Procedure: HT1080 cells stably expressing the XBP-luciferase construct were grown in 60 mm dishes to 60-70% confluency. Following hypoxia treatment, cells were washed twice with PBS, lysed in 400 μl 1× reporter lysis buffer (RLB) (Promega, Madison Wis.) for 30 min at 24° C. Lysates (100 μl) were mixed with an equal volume of luciferase substrate (Promega), and assayed using a luminometer. For 5×-UPRE-luciferase reporter assays, cells were co-transfected with the appropriate reporter plasmid and a control plasmid (pSV40-beta-gal) using Lipofectamine 2000 (Invitrogen, San Diego, Calif.). Twenty-four hours after transfection, fresh media was added, and cells were treated with Tm or shifted to hypoxia. After treatment, cells were lysed in 1× RLB and analyzed for luciferase activity as described above. Beta-galactosidase activity was determined using the beta-galactosidase enzyme assay system (Promega).
A. XBP-luciferase reporter construct. […] After 24 hours, luciferase activity was analyzed in an automated plate reader. For each cell line, values are expressed as the percent inhibition of the median for Tm/Tg-treated wells, corrected for background. […] Values are expressed as the fold increases over uninduced levels. […] Cells were harvested, lysed, and analyzed by immunoblotting with antisera specific for HIF-1α (top), XBP-1s (middle) or actin (bottom). […]

[2] = system: PANC1 pancreatic adenocarcinoma cells; assay: PANC1 tumor growth in nude mice; format: in vivo, mouse; settings: 60 mg/kg bolus every 48 hours, 5 doses, 5-7 tumors per group
Procedure: Dose: 60 mg/kg ip bolus injection every 48 hours. 5 total doses. 5-7 tumors per group. PANC1 pancreatic adenocarcinoma cell line.
PANC1 pancreatic adenocarcinoma cells were implanted subcutaneously into nude mice. Mice were then given a bolus injection of one of the inventive irestatins (1401, 9337, 3611 or 9389) at a dose of 60 mg/kg every 48 hours for a total of 5 doses, with 5-7 tumors being treated per group.

[3] = Histopathological analysis of major organs; format: in vivo, mouse; settings: three doses, 50 mg/kg
Procedure: as §1
Pancreas and liver specimens recovered from mice treated with three doses of either vehicle (top) or irestatin 9389 (50 mg/kg; bottom) were sectioned and stained with hematoxylin and eosin.
as §2

Cc1csc(NC(=O)CSc2nc3c(c(C(F)(F)F)c2C#N)CCC3)n1 [Compound 9389]
fasting blood glucose levels versus vehicle ([1]; 50 mg/kg): no significant difference | HCT ([1]; mean, irestatin-treated mice, complete blood count): 47% | Total Bilirubin ([1]; mean, irestatin-treated mice, terminal cardiac blood): 0.3 mg/dL | diminution of 5X-UPRE luciferase response under hypoxia (XBP-1s (5X-UPRE); 48 hours of hypoxia, vehicle 170-fold): more than 90% | 5X-UPRE luciferase induction over untreated cells (XBP-1s (5X-UPRE); Tm plus irestatin, Tm alone ~12-fold): < 4 fold | tumor growth [2]: significant tumor growth was observed in untreated mice, but not in mice treated with the irestatins | histopathology of all major organs versus vehicle [3]: no significant differences
